ChEMBL document CHEMBL5532675, “Discovery of 4-Ethoxy-6-chloro-5-azaindazoles as Novel PDE4 Inhibitors for the Treatment of Alcohol Use Disorder and Alcoholic Liver Diseases” (J Med Chem, 2024)
Activity calls are given as the source filed them. The calls are words filed in the database; no cut-off is given here.

What was measured:
[1] = target: 3',5'-cyclic-AMP phosphodiesterase 4B (Homo sapiens, UniProt Q07343); test: Inhibition of PDE4B1 (unknown origin) using FAM-cyclic-3',5'-AMP as substrate incubated for 1 hrs by fluorescence polarization based IMAP assay
Chain of 3',5'-cyclic-AMP phosphodiesterase 4B (Q07343 whole entry): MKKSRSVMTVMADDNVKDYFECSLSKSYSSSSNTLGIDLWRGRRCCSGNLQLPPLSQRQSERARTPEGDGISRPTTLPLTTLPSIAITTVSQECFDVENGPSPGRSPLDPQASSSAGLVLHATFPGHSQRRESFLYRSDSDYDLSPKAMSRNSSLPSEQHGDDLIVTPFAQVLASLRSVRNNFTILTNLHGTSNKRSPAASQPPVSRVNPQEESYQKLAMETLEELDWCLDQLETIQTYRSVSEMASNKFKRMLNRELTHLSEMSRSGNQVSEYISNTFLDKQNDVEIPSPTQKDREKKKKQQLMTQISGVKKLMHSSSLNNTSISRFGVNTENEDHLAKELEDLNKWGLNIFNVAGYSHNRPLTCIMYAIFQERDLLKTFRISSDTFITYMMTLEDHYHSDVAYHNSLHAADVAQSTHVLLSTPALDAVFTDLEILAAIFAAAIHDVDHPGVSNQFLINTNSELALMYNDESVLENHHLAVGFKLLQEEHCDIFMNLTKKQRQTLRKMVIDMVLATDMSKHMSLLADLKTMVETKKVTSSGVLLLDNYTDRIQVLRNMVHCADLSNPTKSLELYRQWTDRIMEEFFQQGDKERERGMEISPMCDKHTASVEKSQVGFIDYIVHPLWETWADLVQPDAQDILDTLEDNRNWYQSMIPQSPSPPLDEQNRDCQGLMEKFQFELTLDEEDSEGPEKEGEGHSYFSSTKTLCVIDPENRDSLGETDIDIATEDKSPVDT

[2] = target: T1, 3',5'-cyclic-AMP phosphodiesterase 4D (Homo sapiens, UniProt Q08499); test: Inhibition of PDE4D7 (unknown origin) using FAM-cyclic-3',5'-AMP as substrate incubated for 1 hrs by fluorescence polarization based IMAP assay
T1 sequence (Q08499 whole entry): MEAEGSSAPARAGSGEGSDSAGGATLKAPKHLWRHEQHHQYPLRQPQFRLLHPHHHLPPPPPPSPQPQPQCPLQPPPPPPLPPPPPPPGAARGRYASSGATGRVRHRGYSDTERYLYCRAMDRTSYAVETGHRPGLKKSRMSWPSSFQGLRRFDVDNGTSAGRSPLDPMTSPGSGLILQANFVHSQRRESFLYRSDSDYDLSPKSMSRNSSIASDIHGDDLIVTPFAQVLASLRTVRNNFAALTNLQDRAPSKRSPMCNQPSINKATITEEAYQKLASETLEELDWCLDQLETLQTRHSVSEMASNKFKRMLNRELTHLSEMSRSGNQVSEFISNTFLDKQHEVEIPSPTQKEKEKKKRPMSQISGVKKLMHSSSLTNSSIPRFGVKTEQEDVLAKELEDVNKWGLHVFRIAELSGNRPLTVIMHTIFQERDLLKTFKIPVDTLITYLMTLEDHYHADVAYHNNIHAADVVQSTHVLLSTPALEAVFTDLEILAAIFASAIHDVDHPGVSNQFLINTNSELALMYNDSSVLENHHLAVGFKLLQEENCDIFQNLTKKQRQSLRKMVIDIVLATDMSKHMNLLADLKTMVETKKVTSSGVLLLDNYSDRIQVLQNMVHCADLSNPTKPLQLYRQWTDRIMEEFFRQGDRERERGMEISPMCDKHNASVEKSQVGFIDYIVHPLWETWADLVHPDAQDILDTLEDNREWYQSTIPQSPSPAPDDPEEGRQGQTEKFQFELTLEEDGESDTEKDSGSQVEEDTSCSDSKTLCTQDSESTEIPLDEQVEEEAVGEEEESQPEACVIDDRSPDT

[3] = target: T1, 3',5'-cyclic-AMP phosphodiesterase 4D; test: Inhibition of PDE4D7 (unknown origin) using FAM-cyclic-3',5'-AMP as substrate at 100 nM incubated for 1 hrs by fluorescence polarization based IMAP assay relative to control
[4] = target: T1, 3',5'-cyclic-AMP phosphodiesterase 4D; test: Inhibition of PDE4D7 (unknown origin) using FAM-cyclic-3',5'-AMP as substrate at 10 nM incubated for 1 hrs by fluorescence polarization based IMAP assay relative to control
SH-SY5Y = test: Cytotoxicity against human SH-SY5Y cells assessed as reduction in cell viability incubated for 48 hrs by MTT assay; format: toxicity, cell-based
HT-22 = test: Cytotoxicity against mouse HT-22 cells assessed as reduction in cell viability incubated for 48 hrs by MTT assay; format: toxicity, cell-based; conditions: ht-22, 48 h
[5] = Chemical stability of compound in aqueous solution at pH <6 measured after 48 hrs; format: physicochemical; conditions: buffer
[6] = Chemical stability of compound in aqueous solution at pH >10 measured after 48 hrs; format: physicochemical; conditions: buffer
[7] = Selectivity ratio for inhibition of PDE9A (unknown origin) using FAM-cyclic-3',5'-AMP as substrate to inhibition of PDE4B1 (unknown origin) using FAM-cyclic-3',5'-AMP as substrate
[8] = Selectivity ratio for inhibition of PDE8A1 (unknown origin) using FAM-cyclic-3',5'-AMP as substrate to inhibition of PDE4B1 (unknown origin) using FAM-cyclic-3',5'-AMP as substrate
[9] = target: cGMP-inhibited 3',5'-cyclic phosphodiesterase 3B (Homo sapiens) (UniProt Q13370); test: Inhibition of PDE3B (unknown origin) using FAM-cyclic-3',5'-AMP as substrate at 10 uM incubated for 1 hrs by fluorescence polarization based IMAP assay relative to control
Chain of cGMP-inhibited 3',5'-cyclic phosphodiesterase 3B (Homo sapiens) (Q13370 whole entry, looked up): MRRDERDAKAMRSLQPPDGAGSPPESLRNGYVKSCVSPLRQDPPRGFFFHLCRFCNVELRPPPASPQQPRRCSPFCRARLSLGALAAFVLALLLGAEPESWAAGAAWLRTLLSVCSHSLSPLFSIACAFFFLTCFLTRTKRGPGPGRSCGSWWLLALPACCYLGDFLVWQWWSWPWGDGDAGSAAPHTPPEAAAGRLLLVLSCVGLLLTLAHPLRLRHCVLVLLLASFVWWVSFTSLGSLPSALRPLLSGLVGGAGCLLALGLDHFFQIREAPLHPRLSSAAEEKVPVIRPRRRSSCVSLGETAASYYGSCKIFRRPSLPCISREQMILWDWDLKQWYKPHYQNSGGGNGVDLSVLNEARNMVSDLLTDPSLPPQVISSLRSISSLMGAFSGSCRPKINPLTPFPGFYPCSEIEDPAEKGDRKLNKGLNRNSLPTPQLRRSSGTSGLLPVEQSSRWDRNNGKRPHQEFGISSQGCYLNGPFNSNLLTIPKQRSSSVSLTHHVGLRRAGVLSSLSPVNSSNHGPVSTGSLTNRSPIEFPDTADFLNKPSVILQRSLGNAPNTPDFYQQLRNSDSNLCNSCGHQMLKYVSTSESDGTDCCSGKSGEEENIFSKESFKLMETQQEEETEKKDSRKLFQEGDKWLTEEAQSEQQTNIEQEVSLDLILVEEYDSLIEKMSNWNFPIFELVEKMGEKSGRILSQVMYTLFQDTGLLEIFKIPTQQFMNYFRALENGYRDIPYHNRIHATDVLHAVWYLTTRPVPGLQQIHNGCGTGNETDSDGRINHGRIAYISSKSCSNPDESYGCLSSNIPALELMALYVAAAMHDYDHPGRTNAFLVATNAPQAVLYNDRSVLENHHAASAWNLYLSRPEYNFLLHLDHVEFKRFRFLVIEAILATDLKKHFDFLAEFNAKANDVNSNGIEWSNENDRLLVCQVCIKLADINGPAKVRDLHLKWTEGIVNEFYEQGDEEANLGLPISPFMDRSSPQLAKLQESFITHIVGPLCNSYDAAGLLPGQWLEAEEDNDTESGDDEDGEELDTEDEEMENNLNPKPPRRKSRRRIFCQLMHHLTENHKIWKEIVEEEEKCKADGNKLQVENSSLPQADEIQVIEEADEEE

[10] = target: High affinity 3',5'-cyclic-AMP phosphodiesterase 7A (Homo sapiens) (UniProt Q13946); test: Inhibition of PDE7A (unknown origin) using FAM-cyclic-3',5'-AMP as substrate at 10 uM incubated for 1 hrs by fluorescence polarization based IMAP assay relative to control
Chain of High affinity 3',5'-cyclic-AMP phosphodiesterase 7A (Homo sapiens) (Q13946 whole entry): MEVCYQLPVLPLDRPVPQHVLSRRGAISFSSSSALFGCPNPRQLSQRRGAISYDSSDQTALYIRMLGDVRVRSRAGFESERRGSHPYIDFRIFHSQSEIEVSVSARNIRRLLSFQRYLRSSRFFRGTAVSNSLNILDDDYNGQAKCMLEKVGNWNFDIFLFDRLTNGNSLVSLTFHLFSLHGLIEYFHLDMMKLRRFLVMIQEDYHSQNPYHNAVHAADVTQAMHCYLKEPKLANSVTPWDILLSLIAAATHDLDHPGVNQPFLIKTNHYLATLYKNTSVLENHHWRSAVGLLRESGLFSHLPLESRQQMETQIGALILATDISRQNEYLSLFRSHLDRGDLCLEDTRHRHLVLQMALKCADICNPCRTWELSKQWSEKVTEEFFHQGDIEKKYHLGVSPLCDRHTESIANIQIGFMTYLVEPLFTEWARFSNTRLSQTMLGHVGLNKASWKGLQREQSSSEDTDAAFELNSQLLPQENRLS

[11] = target: High affinity cAMP-specific and IBMX-insensitive 3',5'-cyclic phosphodiesterase 8A (Homo sapiens) (UniProt O60658); test: Inhibition of PDE8A1 (unknown origin) using FAM-cyclic-3',5'-AMP as substrate at 10 uM incubated for 1 hrs by fluorescence polarization based IMAP assay relative to control
Chain of High affinity cAMP-specific and IBMX-insensitive 3',5'-cyclic phosphodiesterase 8A (Homo sapiens) (O60658 whole entry): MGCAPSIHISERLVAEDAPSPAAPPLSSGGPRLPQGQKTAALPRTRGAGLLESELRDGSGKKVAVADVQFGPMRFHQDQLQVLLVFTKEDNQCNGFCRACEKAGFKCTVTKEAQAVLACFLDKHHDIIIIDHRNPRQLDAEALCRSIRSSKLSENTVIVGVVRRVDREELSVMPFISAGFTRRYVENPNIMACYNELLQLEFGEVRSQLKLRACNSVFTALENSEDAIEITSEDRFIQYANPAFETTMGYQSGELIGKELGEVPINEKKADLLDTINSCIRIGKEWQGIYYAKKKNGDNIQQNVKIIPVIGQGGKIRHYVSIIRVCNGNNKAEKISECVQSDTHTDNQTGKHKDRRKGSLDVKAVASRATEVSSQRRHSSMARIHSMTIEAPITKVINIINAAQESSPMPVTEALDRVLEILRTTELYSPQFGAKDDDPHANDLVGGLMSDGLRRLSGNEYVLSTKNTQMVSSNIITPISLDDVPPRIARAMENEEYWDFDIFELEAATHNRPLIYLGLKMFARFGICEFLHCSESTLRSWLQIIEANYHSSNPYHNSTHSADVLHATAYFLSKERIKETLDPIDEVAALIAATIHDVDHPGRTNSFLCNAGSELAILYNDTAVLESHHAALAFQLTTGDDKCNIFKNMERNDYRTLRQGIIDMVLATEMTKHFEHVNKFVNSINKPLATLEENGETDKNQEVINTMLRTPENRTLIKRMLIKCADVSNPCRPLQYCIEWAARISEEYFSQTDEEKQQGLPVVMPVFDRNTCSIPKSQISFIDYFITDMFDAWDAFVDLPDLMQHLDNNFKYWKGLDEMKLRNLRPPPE

[12] = target: High affinity cGMP-specific 3',5'-cyclic phosphodiesterase 9A (Homo sapiens) (UniProt O76083); test: Inhibition of PDE9A (unknown origin) using FAM-cyclic-3',5'-AMP as substrate at 10 uM incubated for 1 hrs by fluorescence polarization based IMAP assay relative to control
Chain of High affinity cGMP-specific 3',5'-cyclic phosphodiesterase 9A (Homo sapiens) (O76083 whole entry): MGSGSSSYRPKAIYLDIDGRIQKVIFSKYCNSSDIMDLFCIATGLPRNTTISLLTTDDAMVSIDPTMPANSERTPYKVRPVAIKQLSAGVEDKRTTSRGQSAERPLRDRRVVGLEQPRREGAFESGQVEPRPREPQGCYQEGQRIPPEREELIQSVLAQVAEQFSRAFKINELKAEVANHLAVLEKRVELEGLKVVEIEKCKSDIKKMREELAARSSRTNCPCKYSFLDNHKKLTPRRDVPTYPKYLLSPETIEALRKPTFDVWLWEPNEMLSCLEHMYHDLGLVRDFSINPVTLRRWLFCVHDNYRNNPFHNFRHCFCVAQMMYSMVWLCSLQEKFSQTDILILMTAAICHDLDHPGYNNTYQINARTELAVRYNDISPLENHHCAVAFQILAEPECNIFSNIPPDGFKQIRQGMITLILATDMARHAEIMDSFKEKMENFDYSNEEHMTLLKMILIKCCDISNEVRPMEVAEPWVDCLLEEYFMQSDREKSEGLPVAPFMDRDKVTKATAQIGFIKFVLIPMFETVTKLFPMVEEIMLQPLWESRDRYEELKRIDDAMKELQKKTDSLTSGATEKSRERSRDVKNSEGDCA

[13] = Selectivity ratio for inhibition of PDE3B (unknown origin) using FAM-cyclic-3',5'-AMP as substrate to inhibition of PDE4D7 (unknown origin) using FAM-cyclic-3',5'-AMP as substrate
[14] = Selectivity ratio for inhibition of PDE7A (unknown origin) using FAM-cyclic-3',5'-AMP as substrate to inhibition of PDE4D7 (unknown origin) using FAM-cyclic-3',5'-AMP as substrate
[15] = Selectivity ratio for inhibition of PDE8A1 (unknown origin) using FAM-cyclic-3',5'-AMP as substrate to inhibition of PDE4D7 (unknown origin) using FAM-cyclic-3',5'-AMP as substrate
[16] = Selectivity ratio for inhibition of PDE9A (unknown origin) using FAM-cyclic-3',5'-AMP as substrate to inhibition of PDE4D7 (unknown origin) using FAM-cyclic-3',5'-AMP as substrate
[17] = Selectivity ratio for inhibition of PDE3B (unknown origin) using FAM-cyclic-3',5'-AMP as substrate to inhibition of PDE4B1 (unknown origin) using FAM-cyclic-3',5'-AMP as substrate
[18] = Selectivity ratio for inhibition of PDE7A (unknown origin) using FAM-cyclic-3',5'-AMP as substrate to inhibition of PDE4B1 (unknown origin) using FAM-cyclic-3',5'-AMP as substrate
[19] = Toxicity in ketamine/xylazine-induced anesthetic C57BL/6J mouse model assessed as emetogenic potential by measuring reduction in anesthesia duration at 5 mg/kg, po preadministered with compound for 15 mins followed by ketamine/xylazine administration; format: organism-based; conditions: in vivo, 0.25 h
[20] = Oral bioavailability in Sprague-Dawley rat at 10 mg/kg measured after 48 hrs by LC-MS/MS analysis; format: ADME, organism-based; conditions: in vivo
[21] = Half-life in Sprague-Dawley rat at 10 mg/kg, po measured after 48 hrs by LC-MS/MS analysis; format: ADME, organism-based; conditions: in vivo
[22] = target: T1, 3',5'-cyclic-AMP phosphodiesterase 4D; test: Inhibition of PDE4D7 (unknown origin) using FAM-cyclic-3',5'-AMP as substrate at 1 microM incubated for 1 hrs by fluorescence polarization based IMAP assay relative to control
[23] = Toxicity in ketamine/xylazine-induced anesthetic C57BL/6J mouse model assessed as emetogenic potential by measuring reduction in anesthesia duration at 0.5 to 1 mg/kg, po preadministered with compound for 15 mins followed by ketamine/xylazine administration; format: organism-based; conditions: in vivo, 0.25 h, dose 0.5-1 mg/kg
Mus musculus [24] = test: Protection against alcohol use disorder in C57BL/6J mouse model assessed as decrease in alcohol intake at 1 mg/kg, po pre-trained with alcohol and water for 42 days with subsequent compound addition on day 22 and measured after 3 weeks by two-bottle choice test; format: functional, organism-based
Mus musculus [25] = test: Protection against alcohol use disorder in C57BL/6J mouse model assessed as decrease in alcohol preference at 1 mg/kg, po pre-trained with alcohol and water for 42 days with subsequent compound addition on day 22 and measured after 3 weeks by two-bottle choice test; format: functional, organism-based
Mus musculus [26] = test: (§1) Protection against alcohol use disorder in C57BL/6J mouse model assessed as decrease in alcohol intake at 1 mg/kg, po pre-trained with alcohol and water for 42 days with subsequent compound addition from day 22 to day 42 followed by 3.5 hrs of darkness and compound administration for 30 mins followed by water replacement with alcohol for 4 hrs on day 46 by Drink-in-Dark test; format: functional, organism-based; conditions: time 23.0 day
Mus musculus [27] = test: as §1, with “exposure-induced anxiety like behavior” for “use disorder”, “distance travelled” for “decrease in alcohol intake”, “and measured 24 hrs after alcohol withdrawal” for “on day 46”, “open field” for “Drink-in-Dark”; format: functional, organism-based; conditions: time 24.0 day
Mus musculus [28] = test: as §1, with “exposure-induced anxiety like behavior” for “use disorder”, “increase” for “decrease”, “center time” for “alcohol intake”, “and measured 24 hrs after alcohol withdrawal” for “on day 46”, “open field” for “Drink-in-Dark”; format: functional, organism-based; conditions: time 24.0 day
Mus musculus [29] = test: Protection against alcohol-induced sedation in C57BL/6J mouse model assessed as reduction in sleep time at 1 mg/kg, po preadministered with compound every 24 hrs for 3 times followed by alcohol administration 30 mins post last dose; format: functional, organism-based; conditions: time 72.5 hrs
Mus musculus [30] = test: (§2) Protection against alcohol-induced motor impairment in C57BL/6J mouse model assessed as short recovery time by measuring latency to falling off at 1 mg/kg, po preadministered with compound every 24 hrs for 3 times followed by alcohol administration 30 mins post last dose and further treated with compound for 3 days followed by alcohol administration 30 mins post last dose and measured at 2 to 20 mins by rotarod test; format: functional, organism-based; conditions: time 8702-8720 min
Mus musculus [31] = test: as §2, with “increase in distance travelled” for “short recovery time by measuring latency to falling off”, “open field” for “rotarod”; format: functional, organism-based; conditions: time 8702-8720 min
Mus musculus [32] = test: as §2, with “as” for “as short”, “of average speed” for “time by measuring latency to falling off”, “open field” for “rotarod”; format: functional, organism-based; conditions: time 8702-8720 min
Mus musculus [33] = test: as §2, with “decrease in resting” for “short recovery”, “time” for “time by measuring latency to falling off”, “open field” for “rotarod”; format: functional, organism-based; conditions: time 8702-8720 min
Mus musculus [34] = test: (§3) Protection against alcoholic liver disease in NIAAA C57BL/6J mouse model assessed as decrease in liver index at 1 mg/kg, po preadministered with 1 to 4 % of alcohol for 10 days with subsequent compound addition from day 6 to 11 and further administered with 31.25 % alcohol on day 11 and measured after 9 hrs; format: functional, organism-based; conditions: time 5.0 day
Mus musculus [35] = test: as §3, with “serum ALT level” for “liver index”, “hrs by absorbance based plate analyzer” for “hrs”; format: functional, organism-based; conditions: time 5.0 day
Mus musculus [36] = test: as §3, with “serum AST level” for “liver index”, “hrs by absorbance based plate analyzer” for “hrs”; format: functional, organism-based; conditions: time 5.0 day
Mus musculus [37] = test: as §3, with “improvement of” for “decrease in”, “injury” for “index”, “hrs by H&E staining based light microscopic analysis” for “hrs”; format: functional, organism-based; conditions: time 5.0 day
Mus musculus [38] = test: as §3, with “improvement of steatosis” for “decrease in liver index”, “hrs by H&E staining based light microscopic analysis” for “hrs”; format: functional, organism-based; conditions: time 5.0 day
Mus musculus [39] = test: as §3, with “improvement of” for “decrease in”, “injury” for “index”, “hrs by Oil Red O staining based light microscopic analysis” for “hrs”; format: functional, organism-based; conditions: time 5.0 day
Mus musculus [40] = test: as §3, with “improvement of steatosis” for “decrease in liver index”, “hrs by Oil Red O staining based light microscopic analysis” for “hrs”; format: functional, organism-based; conditions: time 5.0 day
Mus musculus [41] = test: as §3, with “reduction” for “decrease”, “serum IL-6 level” for “liver index”, “hrs by ELISA” for “hrs”; format: functional, organism-based; conditions: time 5.0 day
Mus musculus [42] = test: as §3, with “reduction” for “decrease”, “serum TNF-alpha level” for “liver index”, “hrs by ELISA” for “hrs”; format: functional, organism-based; conditions: time 5.0 day
Mus musculus [43] = test: as §3, with “reduction” for “decrease”, “TNF-alpha mRNA level” for “index”, “hrs by RT-qPCR analysis” for “hrs”; format: functional, organism-based; conditions: time 5.0 day
Mus musculus [44] = test: as §3, with “reduction” for “decrease”, “IL-6 mRNA level” for “index”, “hrs by RT-qPCR analysis” for “hrs”; format: functional, organism-based; conditions: time 5.0 day
Mus musculus [45] = test: as §3, with “reduction” for “decrease”, “IL-1beta mRNA level” for “index”, “hrs by RT-qPCR analysis” for “hrs”; format: functional, organism-based; conditions: time 5.0 day

With CCOc1nc(Cl)cc2nn(CCC(=O)O)cc12 as the molecule, how does the IC50 [1] read?
The IC50 was 35.2 nM.

And the IC50 [2]?
The IC50 was 25.6 nM.

And the inhibition [3]?
The inhibition was 69%.

And the inhibition [4]?
The inhibition was 35%.

What about the Activity (SH-SY5Y) of the same molecule?
The Activity was “Non-Toxic”.

And the Activity (HT-22)?
Its Activity is “Non-Toxic”.

And the Stability [5]?
Its Stability is “Stable”.

What about the Stability [6] of the same molecule?
The Stability was “Stable”.

What about the Selectivity ratio [7] of the same molecule?
Its Selectivity ratio is greater than 284.

What about the Selectivity ratio [8] of the same molecule?
Its Selectivity ratio is greater than 284.

What about the inhibition [9] of the same molecule?
The inhibition was 7%.

What about the inhibition [10] of the same molecule?
The inhibition was 12%.

And the inhibition [11]?
Its inhibition is 7%.

And the inhibition [12]?
The inhibition was 6%.

And the Selectivity ratio [13]?
The Selectivity ratio was greater than 284.

And the Selectivity ratio [14]?
Its Selectivity ratio is greater than 284.

And the Selectivity ratio [15]?
The Selectivity ratio was greater than 284.

What about the Selectivity ratio [16] of the same molecule?
The Selectivity ratio was greater than 284.

What about the Selectivity ratio [17] of the same molecule?
The Selectivity ratio was greater than 284.

And the Selectivity ratio [18]?
The Selectivity ratio was greater than 284.

What about the Activity [19] of the same molecule?
Its Activity is “Toxic”.

Which bioavailability [20] does the source give for CCNc1cc(C(=O)C2CCCC2)ccc1OC here?
The bioavailability was 43%.

And the half-life [21]?
The half-life was 59.4 min.

For COc1ccc(C2CNC(=O)C2)cc1OC1CCCC1 (stereo not drawn) [ROLIPRAM], which inhibition [22] is on record?
Its inhibition is 72%.

What about the inhibition [3] of the same molecule?
The inhibition was 34%.

What about the Activity [23] of the same molecule?
The Activity was “Toxic”.

And the Activity (Mus musculus [24])?
The Activity was “Active”.

And the Activity (Mus musculus [25])?
Its Activity is “Active”.

What about the Activity (Mus musculus [26]) of the same molecule?
Its Activity is “Active”.

What about the Activity (Mus musculus [27]) of the same molecule?
Its Activity is “Active”.

And the Activity (Mus musculus [28])?
The Activity was “Active”.

And the Activity (Mus musculus [29])?
The Activity was “inactive”.

What about the Activity (Mus musculus [30]) of the same molecule?
The Activity was “inactive”.

What about the Activity (Mus musculus [31]) of the same molecule?
Its Activity is “Active”.

And the Activity (Mus musculus [32])?
The Activity was “Active”.

And the Activity (Mus musculus [33])?
The Activity was “Active”.

What about the Activity (Mus musculus [34]) of the same molecule?
The Activity was “Active”.

And the Activity (Mus musculus [35])?
The Activity was “Active”.

What about the Activity (Mus musculus [36]) of the same molecule?
Its Activity is “Active”.

And the Activity (Mus musculus [37])?
The Activity was “Active”.

And the Activity (Mus musculus [38])?
Its Activity is “Active”.

And the Activity (Mus musculus [39])?
The Activity was “Active”.

What about the Activity (Mus musculus [40]) of the same molecule?
Its Activity is “Active”.

And the Activity (Mus musculus [41])?
Its Activity is “Active”.

What about the Activity (Mus musculus [42]) of the same molecule?
The Activity was “Active”.

And the Activity (Mus musculus [43])?
The Activity was “Active”.

And the Activity (Mus musculus [44])?
Its Activity is “Active”.

And the Activity (Mus musculus [45])?
The Activity was “Active”.
